The values that follow come from patent publication US20240391923A1, “METHIONINE ADENOSYLTRANSFERASE 2A INHIBITOR FOR TREATING MTAP DELETION-TYPE CANCER” (SUZHOU GENHOUSE BIO CO., LTD., priority 2022, published 2024).

Like-named read-outs stand apart in the source and are kept apart here. Some results are limits rather than exact numbers.

Series [1] in a line: Pharmacokinetic test in rats (IV and PO). The conditions noted are these: rat, plasma, SD rats; for half-life: read-out: T½ (converted). In kind it is in vivo.
Series [2] has as its system HCT116-MTAP-knockout (−/−) cell strain. Nature of the series: Tumor cell proliferation inhibition assay (CellTiter-Glo), HCT116-MTAP-knockout (-/-). In kind it is cell-based. The conditions noted are these: Homo sapiens, 120 h, HCT116-MTAP-knockout (−/−) cells, 5-day treatment. Put shortly:
(§1)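 Seed cells; 24 h later add compound (10 gradients, 1:3, max 10 μM; DMSO ctrl). Incubate 5 d, 37° C./5% CO2. Measure ATP via CellTiter-Glo.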

Series [3] in a line: Metabolic stability test in hepatocytes, mouse. In kind it is in vitro ADME. Conditions: hepatocytes (suspension), Table 5: metabolic stability in hepatocytes, up to 90 min, read-out: Metabolic half-life in mouse liver microsome (T½, min). Here is the method: This experimental example was used to test the metabolic stability of the compounds in hepatocytes.
A suspension of hepatocytes was prepared at 0.5×10^6/mL with a pre-heated medium, then 198 μL of the pre-heated cell suspension was added to a 96-well plate. To each well of the 96-well plate, 2 μL of the test compound was added so that the final concentration was 1 μM, and 2 replicate wells were set. For the T=0 min sample, the compound was mixed well with the cells for 1 min, then […] was immediately added to 125 μL of a stop solution (an acetonitrile solution containing 200 ng/mL tolbutamide and 200 ng/mL labetalol) under an ice bath and mixed well. At the same time, all the plates were placed in an incubator at 37° C. with 5% CO2, with the shaker set at 600 rpm. The sample was mixed well at 15, 30, 60, and 90 min of incubation, respectively, and 25 μL of the sample was added to 125 μL of a stop solution (an acetonitrile solution containing 200 ng/mL tolbutamide and 200 ng/mL labetalol) under an ice bath, mixed well, and shaken at 500 rpm for 10 min. Subsequently, the plate was centrifuged for 20 min at 3220×g at 4° C. After the centrifugation was completed, 80 μL of the supernatant from each well was transferred to another 96-well plate containing 240 μL of ultrapure water. Subsequently, analysis was carried out using LC-MS/MS, and intrinsic clearance (CLint) and half-life (T½) were calculated.

In the next series the target is T1, hERG potassium current (Homo sapiens, UniProt Q12809).
T1 construct: expressed in transfected cells; host or cells: HEK293, cultured under G418 selection
Description: hERG inhibition test (whole-cell patch clamp, Qpatch). The series is classed as cell-based. Conditions: initial concentration 30 μM, 6 concentration points. The method, then: The BEK293 cells were cultured in a DiVEM medium containing […] and 0.8 mg/mL G418 at 37° C. with 5% o CO2. The cells were digested by TrypLE™ Express and centrifuged. The cell density was adjusted to 2×10^6 cells/mL. The cells were gently mixed for 15-20 min using a shaker equilibrated at room temperature, and subjected to patch clamping on a machine. The medium of the prepared cells was replaced with extracellular fluid. The intracellular fluid and the extracellular fluid were taken from the fluid pool, and respectively added to the intracellular fluid pool and the cell and the test substance pool of the QPlate chip. The voltage stimulation of the whole-cell hERG potassium current was recorded by the whole-cell patch clamp, and the test data was collected and stored by Qpatch. The compound was diluted 3-fold at an initial concentration of 30 μM, and 6 concentration points were set, with each drug concentration being set for two administrations over a period of at least 5 min. The current detected in compound-free extracellular fluid for each cell was served as its own control group, and the detection was repeated at least twice independently using two cells per concentration. All electrophysiological experiments were performed at room temperature.
For data analysis, the current acted for each drug concentration and the current of the blank control were standardized
and then the inhibition rate corresponding to each drug concentration was calculated
The mean and standard error were calculated for each concentration, and the half maximal inhibitory concentration of each compound was calculated:
The dose-dependent effect was fitted non-linearly using the above equation, wherein Y represents the inhibition rate, C represents the concentration of the test substance, IC50 is the half maximal inhibitory concentration, and HillSlope represents the Hill coefficient. Curve fitting and calculation of IC50 were performed by Graphpad software.

Series [4] in a line: Stability test in liver microsomes, human. In kind it is in vitro ADME, humans. The conditions noted are these: human liver microsomes 0.5 mg/mL, 1.0 μM substrate, up to 60 min; read-out: Metabolic half-life in human liver microsome ( T1/2, min).
Series [5] in a line: Stability test in liver microsomes, mouse. The conditions noted are these: CD-1; mouse liver microsomes 0.5 mg/mL, 1.0 μM substrate, up to 60 min; read-out: Metabolic half-life in mouse liver microsome (T½, min). The series is classed as in vitro ADME, CD-1 mice.
For a further series, the system named is Hut-78 cell strain. Description: Tumor cell proliferation inhibition assay (CellTiter-Glo), Hut-78. Conditions: Homo sapiens, HuT78, 120 h, Hut-78 cells, 5-day treatment. In kind it is cell-based. Put shortly: as §1
The target in the next series is T2, CYP3A4 (Homo sapiens, UniProt P08684).
T2 construct: from tissue; host or cells: liver microsome
Nature of the series: Cytochrome oxidase P450 inhibition test, CYP3A4. In kind it is in vitro ADME. Conditions: liver microsome incubation. The method, then: 100 mM K-Buffer: 9.5 mL of stock solution A was mixed with 40.5 mL of stock solution B, the total volume was adjusted to […] with ultrapure water, and the buffer was titrated to pH 7.4 with KOH or H3PO4. • Starting material A (1 M potassium dihydrogen phosphate): 136.5 g of potassium dihydrogen phosphate in 1 L of water. • Stock B […] in 1 L of water. The test substance powder was prepared into a stock solution with a certain concentration using DMSO or other organic solvents, which was then further diluted using a proper organic solvent. The extracorporeal incubation system for CYP450 enzyme metabolism phenotype study was biochemical reaction of a prepared liver microsome, a redox coenzyme, and an enzyme-specific selective inhibitor in simulated physiological temperature and environment. The concentration of the parent drug or a metabolite thereof in the incubation solution was determined by LC-MS/MS.

Setting [6] is: IC50 score, read-out: Tumor cell 5-day relative growth inhibition (HCT116-MTAP−/−) (nM), score.
Setting [7] is: IC50 value, read-out: Tumor cell 5-day relative growth inhibition (HCT116-MTAP−/−).
Setting [8] is: IC50 score, read-out: Tumor cell 5-day relative growth inhibition (Hut-78) (nM), score.
The mark [9] stands for this setting: IC50 value, read-out: Tumor cell 5-day relative growth inhibition (Hut-78).

T2 sequence (P08684 whole entry): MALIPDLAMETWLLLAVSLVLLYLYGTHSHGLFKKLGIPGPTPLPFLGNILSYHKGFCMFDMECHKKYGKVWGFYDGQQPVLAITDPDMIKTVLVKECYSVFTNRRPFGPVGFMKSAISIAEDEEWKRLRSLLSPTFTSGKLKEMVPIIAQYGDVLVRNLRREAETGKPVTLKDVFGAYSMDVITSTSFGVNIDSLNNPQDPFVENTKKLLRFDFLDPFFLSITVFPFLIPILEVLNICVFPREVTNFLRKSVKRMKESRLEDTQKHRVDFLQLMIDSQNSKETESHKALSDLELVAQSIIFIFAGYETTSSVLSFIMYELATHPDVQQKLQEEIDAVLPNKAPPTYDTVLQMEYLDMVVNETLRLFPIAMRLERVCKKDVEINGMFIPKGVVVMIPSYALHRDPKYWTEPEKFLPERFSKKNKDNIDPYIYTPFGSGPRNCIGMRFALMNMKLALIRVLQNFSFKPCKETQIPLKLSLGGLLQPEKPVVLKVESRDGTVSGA
T1 sequence (Q12809 whole entry): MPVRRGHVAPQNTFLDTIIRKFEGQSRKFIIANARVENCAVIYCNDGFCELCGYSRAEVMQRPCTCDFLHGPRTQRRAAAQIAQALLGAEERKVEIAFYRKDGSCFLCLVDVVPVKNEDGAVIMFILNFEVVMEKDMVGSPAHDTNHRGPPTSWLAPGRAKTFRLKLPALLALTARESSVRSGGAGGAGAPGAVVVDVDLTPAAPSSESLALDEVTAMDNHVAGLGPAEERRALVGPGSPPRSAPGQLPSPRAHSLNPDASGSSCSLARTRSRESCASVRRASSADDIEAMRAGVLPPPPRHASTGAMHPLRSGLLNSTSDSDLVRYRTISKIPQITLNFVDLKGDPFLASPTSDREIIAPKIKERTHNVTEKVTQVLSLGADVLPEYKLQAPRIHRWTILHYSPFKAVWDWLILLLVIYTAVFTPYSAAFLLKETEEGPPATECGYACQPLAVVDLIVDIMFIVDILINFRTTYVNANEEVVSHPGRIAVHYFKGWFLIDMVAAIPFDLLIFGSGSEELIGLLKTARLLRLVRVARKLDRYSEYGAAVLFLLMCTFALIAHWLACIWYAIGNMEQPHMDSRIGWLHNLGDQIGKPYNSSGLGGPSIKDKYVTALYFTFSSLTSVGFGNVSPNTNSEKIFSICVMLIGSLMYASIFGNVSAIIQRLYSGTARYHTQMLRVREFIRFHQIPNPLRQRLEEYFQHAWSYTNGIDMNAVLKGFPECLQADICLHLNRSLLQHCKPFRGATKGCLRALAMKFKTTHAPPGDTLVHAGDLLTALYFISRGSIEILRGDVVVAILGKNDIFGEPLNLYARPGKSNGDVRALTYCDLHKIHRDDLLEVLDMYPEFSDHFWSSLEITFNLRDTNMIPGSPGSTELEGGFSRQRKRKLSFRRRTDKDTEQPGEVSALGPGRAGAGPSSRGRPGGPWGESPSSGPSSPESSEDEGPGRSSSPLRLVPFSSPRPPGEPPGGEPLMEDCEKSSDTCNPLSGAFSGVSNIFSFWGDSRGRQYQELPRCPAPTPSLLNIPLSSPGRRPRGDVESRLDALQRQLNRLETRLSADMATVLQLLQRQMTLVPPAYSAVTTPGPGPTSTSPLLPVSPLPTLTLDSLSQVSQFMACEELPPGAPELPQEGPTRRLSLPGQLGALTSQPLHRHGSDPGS

In the case of `Cn1cc2c(n1)c(=O)n(-c1cccnc1C1CC1)c1cc(Cl)c(F)cc21` [Compound B340], in series [1] (IV 1 mg/kg), the AUC was found to be 10.2 µM·h, the clearance is 4.5 mL/min/kg and the half-life was 6.7 h. Also, in series [1] (PO 5 mg/kg), the AUC was 68.9 µM·h and the half-life is 14.7 h. Also, in series [2] (setting [6]), the IC50 was < 500 nM. Also, the IC50 in series [2] (setting [7]) turned out to be 394 nM. Moreover, the half-life at 1 μM in series [3] was 124 min.
As to `Cn1cc2c(n1)c(=O)n(-c1cccc3[nH]ncc13)c1cc(Cl)c(F)cc21` [Compound B257], the IC50 against hERG potassium current was > 30000 nM; in series [2] (setting [6]), < 500 nM; in series [2] (setting [7]), 27.5 nM. Moreover, the exposure (AUC) in series [1] (IV 1 mg/kg) stood at 177 µM·h. The compound further gave a clearance in series [1] (IV 1 mg/kg) of 0.283 mL/min/kg. For the same compound, in series [1] (IV 1 mg/kg, PO 10 mg/kg), the bioavailability was 243%. Further, the half-life is 8.8 h in series [1] (IV 1 mg/kg) and 72.8 h in series [1] (PO 10 mg/kg).
Consider `Cn1cc2c(n1)c(=O)n(-c1ccccc1Cl)c1nc(C(F)(F)F)ccc21` [Compound B182], for which the IC50 in series [2] (setting [6]) was 500 to 2000 nM; in series [2] (setting [7]), 1860 nM; with Hut-78 cell strain (setting [8]), 500 to 2000 nM; in the series with Hut-78 cell strain (setting [9]), 1220 nM. The half-life at 1 μM in series [4] was 258 min; in series [5] it was 136 min.
On to `Cn1cc2c(n1)c(=O)n(-c1cccc3[nH]ncc13)c1nc(C(F)(F)F)ccc21` [Compound B181], for which the IC50 is > 30000 nM on hERG potassium current; < 500 nM in series [2] (setting [6]); 14.6 nM in series [2] (setting [7]); > 30000 nM against CYP3A4; < 500 nM in the series on Hut-78 cell strain (setting [8]); 36.5 nM in the series with Hut-78 cell strain (setting [9]). Moreover, the AUC was found to be 120 µM·h in series [1] (IV 1 mg/kg) and 541 µM·h in series [1] (PO 5 mg/kg). Besides, the clearance in series [1] (IV 1 mg/kg) was 0.333 mL/min/kg. The bioavailability in series [1] (IV 1 mg/kg, PO 5 mg/kg) was determined as 90%. Besides, the half-life in series [1] (IV 1 mg/kg) was 6.7 h; in series [1] (PO 5 mg/kg) it was 9.5 h. Moreover, the half-life at 1 μM was 91.1 min in series [3], > 145 min in series [4] and > 145 min in series [5].
On to `Cc1ncccc1-n1c(=O)c2nn(C)cc2c2ccc(C(F)(F)F)nc21` (single isomer, unassigned) [Compound B180], for which the IC50 at hERG potassium current was > 30000 nM; in series [2] (setting [6]) it was < 500 nM; in series [2] (setting [7]), 9.6 nM; on CYP3A4, > 10000 nM; in the series on Hut-78 cell strain (setting [8]), < 500 nM; in the series with Hut-78 cell strain (setting [9]), 17.4 nM. In addition, the half-life at 1 μM in series [3] was 47.1 min.
As for `Cn1cc2c(n1)c(=O)n(-c1cccc3[nH]ncc13)c1cc(Cl)ccc21` [Compound B60], the IC50 against hERG potassium current is > 40000 nM; in series [2] (setting [6]), < 500 nM; in series [2] (setting [7]) it was 12.6 nM; against CYP3A4, > 10000 nM; in the series with Hut-78 cell strain (setting [8]), < 500 nM; with Hut-78 cell strain (setting [9]) it was 37.1 nM. The half-life at 1 μM in series [4] is 722 min; in series [5] it was > 145 min.
Turning to `O=c1c2n[nH]cc2c2ccc(C(F)(F)F)nc2n1-c1cccnc1` [Compound B178], the IC50 was > 30000 nM against hERG potassium current; < 500 nM in series [2] (setting [6]); 59.1 nM in series [2] (setting [7]); < 500 nM with Hut-78 cell strain (setting [8]); 184 nM in the series with Hut-78 cell strain (setting [9]).
In the case of `Cn1cc2c(n1)c(=O)n(-c1cccc3[nH]ncc13)c1cc(Cl)c(C#N)cc21` [Compound B258], the figures for the IC50 in series [2] (setting [6]) and in series [2] (setting [7]) were < 500 nM and 235 nM, respectively.
Turning to `Cn1cc2c(n1)c(=O)n(-c1cccnc1)c1cc(Cl)ccc21` [Compound B12], the IC50 is > 30000 nM against hERG potassium current; < 500 nM in series [2] (setting [6]); 383 nM in series [2] (setting [7]); > 10000 nM against CYP3A4; < 500 nM with Hut-78 cell strain (setting [8]); 145 nM with Hut-78 cell strain (setting [9]). The figures for the AUC in series [1] (IV 1 mg/kg) and in series [1] (PO 5 mg/kg) were 18.9 µM·h and 223 µM·h, respectively. In series [1] (IV 1 mg/kg), this compound gave a clearance of 2.67 mL/min/kg. Further, in series [1] (IV 1 mg/kg, PO 5 mg/kg), the bioavailability was determined as 217%. For the same compound, the results for the half-life in series [1] (IV 1 mg/kg) and in series [1] (PO 5 mg/kg) were 3.4 h and 3.7 h, respectively. Also, the half-life at 1 μM in series [3] is 68.8 min; in series [4], > 145 min; in series [5], > 145 min.
Regarding `Cn1cc2c(n1)c(=O)n(-c1cccc(O)c1)c1nc(C(F)(F)F)ccc21` [Compound B148], the values for the IC50 against hERG potassium current, in the series on Hut-78 cell strain (setting [8]) and in the series on Hut-78 cell strain (setting [9]) were > 30000 nM, < 500 nM and 135 nM, respectively. Also, the figures for the half-life at 1 μM in series [3], in series [4] and in series [5] were 14.9 min, > 145 min and 120 min, respectively.
